Reference: patent US20230149560A1, “LIPID COMPOSITIONS FOR DELIVERY OF STING AGONIST COMPOUNDS AND USES THEREOF” (priority 2020, published 2023)

Assays:
MC38 tumors = test: MC38 flank tumor model, single intravenous dose; type: in vivo, mouse; details: for tumor burden: MC38, single iv dose day 7: LND 1 5 nmol CDN, parent CDN 5 or 100 nmol, ADU-S100 100 nmol
Description: Specifically, a single intravenous injection of LND 1 prepared as described in Example 3 was compared to intravenous injection of parent CDN for effects on tumor growth in a mouse model of colon adenocarcinoma. Tumors were established in 8-10 week old C57BL/6 mice by inoculating the right flank with a subcutaneous injection of 5x10^5 MC38 cells suspended in PBS. On day 7 post-inoculation, the mice were administered an intravenous injection of either parent CDN or LND-formulated CDN at a dose of 5 nmol CDN. Tumor area was measured on days 7, 10, and 12 and compared to untreated mice that received an intratumoral injection of PBS on day 7. The mice were then sacrificed on day 13, and excised tumors were weighed.
Mice were inoculated with MC38 tumors as described above. On day 7 post tumor inoculation, mice were administered a single intravenous injection of parent CDN at a dose of 5 nmol (n=5) or 100 nmol (n=10), ADU-S100 at a dose of 100 nmol (n=10), or LND 1 at a dose of 5 nmol CDN (n=20). Following administration, tumor growth and animal survival was monitored and compared to untreated mice that received an injection of PBS.
It was further investigated whether intravenous administration of LND-formulated CDN was effective in treating well-established MC38 tumors. Specifically, MC38 tumors were allowed to grow for 10 days post-inoculation (mean size of about 45 mm^2), whereupon a single intravenous dose of LND 1 was administered (5 nmol CDN). Control mice were administered PBS only. […] Though mice administered LND-formulated CDN experience some weight loss (about 10% body weight), they recovered full body weight within about 5 days of administration (data not shown).
Systemic administration of LND or liposome particles comprising CDN-PEG-Lipid was compared in the MC38 tumor model. […] The effect on tumor area and survival was evaluated and compared to untreated mice receiving an injection of PBS alone. Tumor size was measured by area (longest dimension x perpendicular dimension) and the mice were euthanized when the tumor area exceeded 150 mm^2 or tumor ulceration became severe.

4T1-Luc tumor = test: Orthotopic 4T1 tumor model, single intravenous dose; type: in vivo, mouse; details: 4T1 orthotopic, single iv day 7: LND 1 10 nmol CDN; parent CDN 200 nmol
Description: To evaluate therapeutic efficacy in the aggressive 4T-1 orthotopic tumors, BALB/c mice were inoculated with 5 x 10^5 4T1-Luc tumor cells that were injected into the fourth mammary fat-pad. At 7 days post tumor inoculation, mice were administered CDN formulated as LND 1 at a dose of 10 nmol CDN or parent CDN at a dose of 200 nmol CDN per mouse by intravenous injection. Control mice were administered PBS only.

Row | Structure (SMILES) | tumor burden (MC38 tumors) | tumor area and mass (MC38 tumors; MC38, single iv 5 nmol CDN on day 7, area days 7-12, weight day 13, vs untreated) | tumor growth and survival (4T1-Luc tumor)
1 | Nc1ncnc2c1ncn2[C@@H]1O[C@@H]2COP(O)(=S)O[C@@H]3C(O)[C@@H](COP(O)(=S)O[C@H]2[C@H]1O)O[C@H]3n1cnc2c(N)ncnc21 (stereo partly shown) [ADU-S100, dithio-(Rp, Rp)-[cyclic[A(2′,5′)pA(3′,5′)p]], reference compound] | no reduction of tumor burden | – | –
2 | CCN(CC)CC.Nc1nc2c(ncn2[C@@H]2O[C@@H]3COP(=O)(S)O[C@H]4[C@H]5OC[C@]4(COP(=O)(O)O[C@@H]2[C@@H]3O)O[C@H]5n2cnc3c(N)ncnc32)c(=O)[nH]1 (stereo partly shown) [parent CDN] | no reduction of tumor burden | no effect | no impact on tumor growth or overall survival
